Measurements reported in ChEMBL document CHEMBL5620357, “Synthesis and anti-inflammatory activity evaluation of NO-releasing furoxan/1,2,4-triazole hybrid derivatives” (Eur J Med Chem, 2023).
Active and inactive are the calls of the source. No cut-off for these calls is given here.

Columns and labels:
[1] = Cytotoxicity against mouse RAW264.7 cells assessed as cell viability at 50 uM measured after 24 hrs by MTT assay; assay type: toxicity, cell-based; conditions: read-out: Activity
[2] = Cytotoxicity against mouse RAW264.7 cells assessed as maximal safe dose measured after 24 hrs by MTT assay; assay type: toxicity, cell-based; conditions: read-out: MTD
[3] = system: RAW264.7; assay: cells; conditions: Mus musculus, RAW264.7, 24 h
Description: Anti-inflammatory activity against mouse RAW264.7 cells assessed as inhibition of LPS-induced NO production measured after 24 hrs incubation by Griess analysis

[4] = system: Mus musculus; assay: Anti-inflammatory activity against carrageenan-induced paw edema in ICR mouse model assessed as reduction in IL-6 level in serum at 10 mg/kg, po measured after 5 hrs by ELISA relative to control; assay type: functional
[5] = system: Mus musculus; assay: Anti-inflammatory activity against carrageenan-induced paw edema in ICR mouse model assessed as reduction in TNF-alpha level in serum at 10 mg/kg, po measured after 5 hrs by ELISA relative to control; assay type: functional
[6] = system: Mus musculus; assay: Anti-inflammatory activity against carrageenan-induced hind paw edema mouse model assessed as reduction in cellular infiltration in connective tissue at 10 mg/kg, po; assay type: functional, organism-based
[7] = system: Mus musculus; assay: Anti-inflammatory activity against carrageenan-induced hind paw edema mouse model assessed as decrease in COX-2 expression in connective tissue at 10 mg/kg, po; assay type: functional, organism-based
[8] = Gastric ulcerogenic activity in mouse assessed as mucosal erosion and inflammatory cellular infiltration at 2.5 to 10 mg/kg, po by hematoxylin and eosin staining based assay; assay type: toxicity, organism-based; conditions: in vivo, dose 2.5-10 mg/kg

SMILES | viability at 24 h, 50 µM [1] | MNTC at 24 h [2] | IC50 [3] | other results
O=C(OCc1c(-c2ccccc2)no[n+]1[O-])c1nc(CCl)n(-c2ccccc2C(F)(F)F)n1 | > 95% | ~20 µg/mL | 13.8 µM | –
O=C(OCc1c(-c2ccccc2)no[n+]1[O-])c1nc(CCl)n(-c2ccccc2)n1 | > 95% | ~20 µg/mL | – | –
[O-][n+]1ccno1 | – | – | 50 µM | –
N#Cc1ccc(-n2nc(C(=O)OCc3c(-c4ccccc4)no[n+]3[O-])nc2CCl)cc1 | > 95% | ~20 µg/mL | – | –
Cc1ccc(-n2nc(C(=O)OCc3c(-c4ccccc4)no[n+]3[O-])nc2CCl)cc1 | > 95% | ~20 µg/mL | – | –
O=C(OCc1c(-c2ccccc2)no[n+]1[O-])c1nc(CCl)n(-c2ccc(F)cc2)n1 | > 95% | ~20 µg/mL | – | –
COc1ccc(-n2nc(C(=O)OCc3c(-c4ccccc4)no[n+]3[O-])nc2CCl)cc1 | > 95% | ~20 µg/mL | – | –
Cc1cccc(-n2nc(C(=O)OCc3c(-c4ccccc4)no[n+]3[O-])nc2CCl)c1 | > 95% | ~20 µg/mL | 6.1 µM | –
COc1ccc2c(c1)c(CC(=O)O)c(C)n2C(=O)c1ccc(Cl)cc1 [INDOMETHACIN] | – | – | 56.8 µM | inhibition in vivo at 10 mg/kg [4]: 44%; inhibition in vivo at 10 mg/kg [5]: 29.8%; Activity [6]: Active; Activity [7]: Active; Activity [8]: Toxic
O=C(OCc1c(-c2ccccc2)no[n+]1[O-])c1nc(CCl)n(-c2cccc(C(F)(F)F)c2)n1 | > 95% | ~20 µg/mL | – | Activity [8]: Non-Toxic
O=C(OCc1c(-c2ccccc2)no[n+]1[O-])c1nc(CCl)n(-c2cccc(F)c2)n1 | > 95% | ~20 µg/mL | – | –
O=C(OCc1c(-c2ccccc2)no[n+]1[O-])c1nc(CCl)n(-c2ccc(C(F)(F)F)cc2)n1 | > 95% | ~20 µg/mL | – | –
O=C(OCc1c(-c2ccccc2)no[n+]1[O-])c1nc(CCl)n(-c2ccccc2F)n1 | > 95% | ~20 µg/mL | 14.6 µM | –
